Legend:
[1] = biological target: T1, PI3Kalpha (Homo sapiens, UniProt P42336); test: Inhibition of PI3Kalpha-induced PIP-2 phosphorylation (filter-binding assay, 33P-ATP); type: biochemical; conditions: PI3 Kinase alpha (p85alpha/His-p110alpha), 1 μM ATP; read-out: IC50 PI3Kα
T1 construct: His (N); made in house; host or cells: SF9 insect cells (baculovirus co-infection)
Method: Biological Methods Inhibition of PI3Kalpha-Induced PIP-2 Phosphorylation
See also J. A. Engelman, Nature Reviews Cancer, 2009, 9, 550-562; A. Carnero, Expert Opin. Investig. Drugs, 2009, 18, 1265-1277 and P. Liu et al., Nature Reviews Drug Discovery, 2009, 8, 627-64.
Method Type: Filter-Binding-Assay
Aliquoted in desired amounts and stored at −80° C. […] Assay Procedure
The substrate-containing lipid vesicles are dissolved to a concentration of 0.637 mg lipid blend/ml assay buffer (with BSA, freshly added) in 50 ml Falcon ->keep on ice, followed by ultrasonication (pulse of 15 sec followed by a pause of 10 sec, 4×). Compounds are serially diluted in assay buffer+6% DMSO and 10 μl of each dilution is added per well of a 96-well plate (compounds are tested in duplicates) and mixed with 30 μl of the lipid vesicles containing PDGFR-Peptide (0.5 μM final) and PI3K alpha (25 ng/well final). The mixture is then incubated for 20 minutes at room temperature.
Subsequently, 20 μl of assay buffer containing 3 μM cold ATP and 0.5 μCi/20 μl 33P-ATP are added. The plates are then incubated at room temperature for 120 minutes (shaking with 300 rpm).
The reaction mix is transferred onto filter plates using “filtermate harvester” from Packard: filter plates are rinsed with PBS, then the reaction mix is filtered onto the filter plate, washed 5 times with PBS and are allowed to dry for 30-60 minutes at 50° C. The plate bottom is sealed with Perkin Elmer white adhesive foil and 25 μl/well Microscint0 are added, the top is covered with transparent adhesive foil and the plate is measured with Wallac Trilux 1450 Microbeta Counter.
As positive control serve wells containing vehicle controls (1% DMSO in assay buffer), showing non-inhibited kinase activity (high values). Wells containing assay buffer instead of enzyme can serve as control for background activity (low values).
Calculate IC50 values using the Smiley program (based on GrapPad Prism)

[2] = test system: H460 cells; test: alamarBlue H460 cell assay (antiproliferative/cytotoxicity); type: cell-based; conditions: NCI-H460; H460 human lung carcinoma cells
Source text: (§1) The H460, MB453, U87, MCF7 and BT474 alamarBlue cell assays provide EC50 values indicative of the antiproliferative or cytotoxic effects of the compounds to respectively the H460 (human non small cell line cancer), MB-453 (breast cancer cell line), U87 (glioblastoma cell line), MCF7 (breast cancer cell line) and BT474 (breast cancer cell line). As known in the field, antiproliferative or cytotoxic effect against this cell lines would be expected to be indicative of activity in treating lung, breast and brain cancers. See R. Marone R et al. Biochim. Biophys. Acta. 2008 January; 1784(1):159-85. S. Yaguchi et al., J. Natl. Cancer Inst. 2006 Apr. 19; 98(8):545-56.
(§2) Method Type: Antiproliferative/Cytotoxicity
(§3) alamarBlue® is designed to provide a rapid and sensitive measure of cell proliferation and cytotoxicity in various human and animal cell lines. The assay is based on the reduction of alamarBlue in the reducing environment of living (metabolically active) cells. In the presence of added cytotoxic or antiproliferative compounds, the innate metabolic activity ceases.
(§4) AlamarBlue is soluble and stable in culture medium. Measurements are made fluorometrically by exciting at 530-560 nm and measuring emission at 590 nm. In reporting percent alamarBlue reduction by monitoring fluorescence, data are expressed as fluorescence emission intensity units as a function of time of incubation.
(§5) 3. Equipment • 96-well plates, flat bottom (Falcon, Cat. No.: 353072) • 96-well plates, U-shaped (Costar, Cat. No.: 3799) • CO2-Incubator • Microplate Reader, Spectramax Plus, Molecular Devices 4. Typical Procedure • Day 0: Seed 3000 BT-474 cells (IMDM/5% FCS, 1% NEAA, 1% Sodiumpyruvat) in 150 μl medium into a 96-well plate, flat bottom (include mediumblank). Incubate plates at 37° C. in a CO2 incubator overnight. • Day 1: Dilute compounds to a concentration 40 μM ->1:3 in medium, 10 dilution steps, in 96-well plates. • Add 50 μl per well of each dilution (total volume per well 200 μl; final conc. of cpds: 10 μM ->1:3). If required, test further dilutions. • All concentrations are tested in duplicates. • Controls: Cells w/o cpd. (+50 μl medium/DMSO). • Cells are incubated with compounds for 5-6 days. • Day 6 or 7: Add 25 μl of alamarBlue solution to each well and incubate for 8 hours at 37° C. Measure fluorescence by exciting at 530-560 nm and measuring emission at 590 nm 5. Evaluation • Subtract average value for medium blank from sample readings • Calculate EC50 using GraphPad Prism (Fifty)

[3] = test system: MCF7 cells; test: alamarBlue MCF7 cell assay (antiproliferative/cytotoxicity); type: cell-based; conditions: MCF7 human breast cancer cell line
Source text: as §1, §2, §3, §4, §5

[4] = test system: BT474 cells; test: alamarBlue BT474 cell assay (antiproliferative/cytotoxicity); type: cell-based; conditions: BT-474 human breast cancer cell line, 5-6 days incubation
Source text: as §1, §2, §3, §4, §5

T1 sequence (P27986 whole entry): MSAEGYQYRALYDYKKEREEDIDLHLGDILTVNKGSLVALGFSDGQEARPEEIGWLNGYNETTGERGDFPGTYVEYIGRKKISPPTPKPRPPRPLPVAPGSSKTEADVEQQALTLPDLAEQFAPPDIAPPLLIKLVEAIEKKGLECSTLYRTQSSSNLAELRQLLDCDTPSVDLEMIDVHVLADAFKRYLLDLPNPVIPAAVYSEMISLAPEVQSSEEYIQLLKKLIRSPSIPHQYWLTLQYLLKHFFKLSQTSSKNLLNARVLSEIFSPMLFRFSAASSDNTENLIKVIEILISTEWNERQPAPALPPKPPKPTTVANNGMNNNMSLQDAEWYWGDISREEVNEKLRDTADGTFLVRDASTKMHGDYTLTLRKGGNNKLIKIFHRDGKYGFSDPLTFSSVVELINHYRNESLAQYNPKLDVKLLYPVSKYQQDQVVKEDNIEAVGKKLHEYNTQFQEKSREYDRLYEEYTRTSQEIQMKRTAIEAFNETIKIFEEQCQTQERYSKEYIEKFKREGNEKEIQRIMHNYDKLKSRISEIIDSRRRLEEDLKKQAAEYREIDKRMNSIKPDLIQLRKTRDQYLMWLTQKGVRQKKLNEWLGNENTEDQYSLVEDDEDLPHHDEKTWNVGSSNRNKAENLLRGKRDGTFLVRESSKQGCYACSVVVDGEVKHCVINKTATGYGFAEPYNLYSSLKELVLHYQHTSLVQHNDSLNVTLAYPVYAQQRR
T1 sequence (P42336 whole entry): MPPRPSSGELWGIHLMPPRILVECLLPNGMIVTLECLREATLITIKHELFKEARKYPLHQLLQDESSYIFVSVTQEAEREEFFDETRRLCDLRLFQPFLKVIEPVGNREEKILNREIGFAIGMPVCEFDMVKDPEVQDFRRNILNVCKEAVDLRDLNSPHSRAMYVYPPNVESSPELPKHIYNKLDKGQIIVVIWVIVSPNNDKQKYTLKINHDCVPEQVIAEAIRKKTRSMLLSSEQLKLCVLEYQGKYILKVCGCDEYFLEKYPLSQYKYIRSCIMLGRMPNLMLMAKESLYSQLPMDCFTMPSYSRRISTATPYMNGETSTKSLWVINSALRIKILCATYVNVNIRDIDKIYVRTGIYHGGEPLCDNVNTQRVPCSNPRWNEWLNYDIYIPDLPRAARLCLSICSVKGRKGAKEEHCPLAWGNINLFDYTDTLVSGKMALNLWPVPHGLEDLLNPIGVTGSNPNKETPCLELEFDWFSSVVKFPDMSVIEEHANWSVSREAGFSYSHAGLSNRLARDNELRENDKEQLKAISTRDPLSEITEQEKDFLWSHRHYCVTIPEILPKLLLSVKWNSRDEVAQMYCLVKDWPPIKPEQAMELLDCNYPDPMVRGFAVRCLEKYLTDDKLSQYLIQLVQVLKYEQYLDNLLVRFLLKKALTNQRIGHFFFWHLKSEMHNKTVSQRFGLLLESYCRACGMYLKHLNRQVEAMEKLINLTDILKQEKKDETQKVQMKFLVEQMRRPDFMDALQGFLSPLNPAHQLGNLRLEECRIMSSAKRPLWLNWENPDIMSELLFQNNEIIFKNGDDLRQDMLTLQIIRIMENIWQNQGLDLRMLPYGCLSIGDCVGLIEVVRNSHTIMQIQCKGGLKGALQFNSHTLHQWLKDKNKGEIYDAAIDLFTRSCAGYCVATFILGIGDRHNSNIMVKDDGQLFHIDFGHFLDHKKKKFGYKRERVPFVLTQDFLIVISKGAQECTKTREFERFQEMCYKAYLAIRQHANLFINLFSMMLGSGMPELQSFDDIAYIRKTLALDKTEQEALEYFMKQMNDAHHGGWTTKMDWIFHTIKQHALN

IC50 [1] [nM]	SMILES	EC50 [2] [nM]	EC50 [3] [nM]	EC50 [4] [nM]
2	CCc1nc(N)nc(-c2cccnc2)c1C#Cc1cnc(C)c(NS(C)(=O)=O)c1 [Example 12, N-[5-(2-Amino-4-ethyl-6-pyridin-3-yl-pyrimidin-5-ylethynyl)-2-methyl-pyridin-3-yl]-methanesulfonamide]	1240		
0.74	CCc1nc(N)nc(-c2ccc(C3CC3)nc2)c1C#Cc1cnc(C)c(NS(C)(=O)=O)c1 [Example 13, N-{5-[2-Amino-4-(6-cyclopropyl-pyridin-3-yl)-6-ethyl-pyrimidin-5-ylethynyl]-2-methyl-pyridin-3-yl}-methanesulfonamide]	141	24	132
1	CCc1nc(N)nc(-c2ccc(C)nc2)c1C#Cc1cnc(C)c(NS(C)(=O)=O)c1 [Example 14, N-{5-[2-Amino-4-ethyl-6-(6-methyl-pyridin-3-yl)-pyrimidin-5-ylethynyl]-2-methyl-pyridin-3-yl}-methanesulfonamide]	305	16	89
0.95	CCc1nc(N)nc(-c2ccnc(C)c2)c1C#Cc1cnc(C)c(NS(C)(=O)=O)c1 [Example 15, N-{5-[2-Amino-4-ethyl-6-(2-methyl-pyridin-4-yl)-pyrimidin-5-ylethynyl]-2-methyl-pyridin-3-yl}-methanesulfonamide]	294	40	107
2	CCc1nc(N)nc(-c2cccc(F)c2)c1C#Cc1cnc(C)c(NS(C)(=O)=O)c1 [Example 16, N-{5-[2-Amino-4-ethyl-6-(3-fluoro-phenyl)-pyrimidin-5-ylethynyl]-2-methyl-pyridin-3-yl}-methanesulfonamide]	337		
2	CCc1nc(N)nc(-c2ccccc2)c1C#Cc1cnc(C)c(NS(C)(=O)=O)c1 [Example 17, N-[5-(2-Amino-4-ethyl-6-phenyl-pyrimidin-5-ylethynyl)-2-methyl-pyridin-3-yl]-methanesulfonamide]	172		
2	CCc1nc(N)nc(-c2ccc(CN3CCOCC3)cc2)c1C#Cc1cnc(C)c(NS(C)(=O)=O)c1 [Example 18, N-{5-[2-Amino-4-ethyl-6-(4-morpholin-4-ylmethyl-phenyl)-pyrimidin-5-ylethynyl]-2-methyl-pyridin-3-yl}-methanesulfonamide]		118	260
6	CCc1nc(N)nc(-c2cccc(CN(C)C)c2)c1C#Cc1cnc(C)c(NS(C)(=O)=O)c1 [Example 19, N-{5-[2-Amino-4-(3-dimethylaminomethyl-phenyl)-6-ethyl-pyrimidin-5-ylethynyl]-2-methyl-pyridin-3-yl}-methanesulfonamide]		313	806
14	CCS(=O)(=O)Nc1cc(C#Cc2c(C)nc(N)nc2-c2ccnc(C)c2)cnc1C [Example 20, Ethanesulfonic acid {5-[2-amino-4-methyl-6-(2-methyl-pyridin-4-yl)-pyrimidin-5-ylethynyl]-2-methyl-pyridin-3-yl}-amide]	1820		
28	CCc1ncnc(-c2ccc(OC)c(OC)c2C)c1C#Cc1cnc(C)c(NS(C)(=O)=O)c1 [Example 24, N-{5-[4-(3,4-Dimethoxy-2-methyl-phenyl)-6-ethyl-pyrimidin-5-ylethynyl]-2-methyl-pyridin-3-yl}-methanesulfonamide]			
2	CCc1nc(N)nc(-c2cccc(CN(C)C)c2)c1C#Cc1cnc(C)c(NS(=O)(=O)c2ccc(F)cc2F)c1 [Example 35, N-{5-[2-Amino-4-(3-dimethylaminomethyl-phenyl)-6-ethyl-pyrimidin-5-ylethynyl]-2-methyl-pyridin-3-yl}-2,4-difluoro-benzenesulfonamide]			
380	CCc1ncnc(-c2c(C)cccc2C)c1C#Cc1cnc(C)c(NS(C)(=O)=O)c1 [Example 58, N-{5-[4-(2,6-Dimethyl-phenyl)-6-ethyl-pyrimidin-5-ylethynyl]-2-methyl-pyridin-3-yl}-methanesulfonamide]			
37	CCc1ncnc(-c2ccccc2C)c1C#Cc1cnc(C)c(NS(C)(=O)=O)c1 [Example 60, N-[5-(4-Ethyl-6-o-tolyl-pyrimidin-5-ylethynyl)-2-methyl-pyridin-3-yl}-methanesulfonamide]			
34	CCc1ncnc(-c2cc(C#N)ccc2F)c1C#Cc1cnc(C)c(NS(C)(=O)=O)c1 [Example 66, N-{5-[4-(5-Cyano-2-fluoro-phenyl)-6-ethyl-pyrimidin-5-ylethynyl]-2-methyl-pyridin-3-yl}-methanesulfonamide]			
46	CCc1ncnc(-c2cc(C(F)(F)F)ccc2F)c1C#Cc1cnc(C)c(NS(C)(=O)=O)c1 [Example 67, N-{5-[4-Ethyl-6-(2-fluoro-5-trifluoromethyl-phenyl)-pyrimidin-5-ylethynyl]-2-methyl-pyridin-3-yl}-methanesulfonamide]			
136	CCc1ncnc(-c2cc(C(F)(F)F)ccc2OC)c1C#Cc1cnc(C)c(NS(C)(=O)=O)c1 [Example 68, N-{5-[4-Ethyl-6-(2-methoxy-5-trifluoromethyl-phenyl)-pyrimidin-5-ylethynyl]-2-methyl-pyridin-3-yl}-methanesulfonamide]			
150	CCc1ncnc(-c2cc(CN)ccc2F)c1C#Cc1cnc(C)c(NS(C)(=O)=O)c1 [Example 77, N-{5-[4-(5-Aminomethyl-2-fluoro-phenyl)-6-ethyl-pyrimidin-5-ylethynyl]-2-methyl-pyridin-3-yl}-methanesulfonamide]			
44	CCc1ncnc(-c2cccc(CN)c2F)c1C#Cc1cnc(C)c(NS(C)(=O)=O)c1 [Example 79, N-{5-[4-(3-Aminomethyl-2-fluoro-phenyl)-6-ethyl-pyrimidin-5-ylethynyl]-2-methyl-pyridin-3-yl}-methanesulfonamide]			
43	CCc1ncnc(-c2ccc(OC)c(OC)c2OC)c1C#Cc1cnc(C)c(NS(C)(=O)=O)c1 [Example 80, N-{5-[4-Ethyl-6-(2,3,4-trimethoxy-phenyl)-pyrimidin-5-ylethynyl]-2-methyl-pyridin-3-yl}-methanesulfonamide]			
2	CCc1ncnc(-c2ccnc(C)c2)c1C#Cc1cnc(C)c(NS(=O)(=O)c2ccc(F)cc2Cl)c1 [Example 90, 2-Chloro-N-{5-[4-ethyl-6-(2-methyl-pyridin-4-yl)-pyrimidin-5-ylethynyl]-2-methyl-pyridin-3-yl}-4-fluoro-benzenesulfonamide]			
12	CCc1ncnc(-c2ccnc(C)c2)c1C#Cc1cnc(C)c(NS(=O)(=O)c2ccc(Br)cc2C)c1 [Example 97, 4-Bromo-N-{5-[4-ethyl-6-(2-methyl-pyridin-4-yl)-pyrimidin-5-ylethynyl]-2-methyl-pyridin-3-yl}-2-methyl-benzenesulfonamide]			1530

From US8466162B2, “5-alkynyl-pyridines” (Boehringer Ingelheim International GmbH, priority 2011, dated 2013)
